Measurements published in US9896445B2, “Heterocyclic inhibitors of ERK1 and ERK2 and their use in the treatment of cancer” (Asana Biosciences, LLC, priority 2015, dated 2018).

Legend:
[1] = molecular target: T1, ERK2 (Homo sapiens, UniProt P28482); test: ERK2 HTRF (biochemical) assay
T1 construct: purchased Jubilant Biosys
How it was run: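 Readout was time-resolved FRET between europium anti-phospho-MBP and streptavidin-APC after a 60-min room-temperature kinase step. That step used ERK2 (25 nM in enzyme mix), biotinylated MBP peptide (1 uM) and ATP (24 uM) from the substrate mix, in pH 7.5 Tris buffer.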

[2] = molecular target: T2, ERK1 (Homo sapiens, UniProt P27361); test: ERK1 HTRF (biochemical) assay
T2 construct: purchased Jubilant Biosys
T2 sequence (P27361 whole entry): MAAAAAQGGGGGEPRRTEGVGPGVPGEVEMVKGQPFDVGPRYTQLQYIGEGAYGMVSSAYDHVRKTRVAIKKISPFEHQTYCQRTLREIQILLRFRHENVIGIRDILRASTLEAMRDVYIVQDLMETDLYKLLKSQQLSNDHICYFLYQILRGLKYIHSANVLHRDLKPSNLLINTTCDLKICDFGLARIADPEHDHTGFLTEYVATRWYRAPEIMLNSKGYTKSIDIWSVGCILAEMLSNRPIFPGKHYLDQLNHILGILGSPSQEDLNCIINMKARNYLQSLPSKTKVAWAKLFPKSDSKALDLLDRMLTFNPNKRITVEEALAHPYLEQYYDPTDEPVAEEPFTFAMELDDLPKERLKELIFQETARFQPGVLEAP
Description: ERK1 and ERK2 HTRF (Biochemical) Assays
These assays employed a homogeneous time resolved fluorescence (HTRF) technique. […] The plate was incubated at room temperature for 60 min with shaking. […] The IC50 values (half maximal inhibitory concentration values) were subsequently determined using a sigmoidal dose-response curve (variable slope) in GraphPad Prism® 5 software.

T1 sequence (P28482 whole entry): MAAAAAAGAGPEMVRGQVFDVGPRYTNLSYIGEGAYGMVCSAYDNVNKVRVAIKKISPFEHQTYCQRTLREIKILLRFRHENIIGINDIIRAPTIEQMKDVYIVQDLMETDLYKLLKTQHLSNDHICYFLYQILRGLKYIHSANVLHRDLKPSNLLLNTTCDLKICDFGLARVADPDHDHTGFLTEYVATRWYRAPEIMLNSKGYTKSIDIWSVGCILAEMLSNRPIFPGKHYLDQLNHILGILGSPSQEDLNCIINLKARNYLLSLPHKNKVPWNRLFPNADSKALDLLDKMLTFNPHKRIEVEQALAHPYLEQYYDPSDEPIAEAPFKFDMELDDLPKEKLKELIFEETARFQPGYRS

Cc1cnc(Nc2ccc3c(c2)OC(F)(F)O3)nc1-n1ccc(C(=O)NC(CO)c2cccc(Cl)c2)c1 (centres unmarked) [Compound 62, N-(1-(3-chloro-phenyl)-2-hydroxyethyl)-1-(2-((2,2-difluoro-benzo[d][1,3]dioxol-5-yl)amino)-5-methylpyrimidin-4-yl)-1H-pyrrole-3-carboxamide] was tested. Which IC50 ([1]; HTRF) did it give?
Its IC50 is at most 50 nM.

What about the IC50 ([2]; HTRF) of the same molecule?
Its IC50 is under 50 nM.

How did the IC50 ([1]; HTRF) turn out when Cc1cnc(Nc2ccc(F)c(N3CCOCC3)c2)nc1-n1ccc(C(=O)NC(CO)c2cccc(Cl)c2)c1 (centres unmarked) [Compound 175, N-(1-(3-chloro-phenyl)-2-hydroxy-ethyl)-1-(2-((4-fluoro-3-morpholinophenyl)amino)-5-methyl-pyrimidin-4-yl)-1H-pyrrole-3-carboxamide] was run?
Its IC50 is at most 50 nM.

And the IC50 ([2]; HTRF)?
The IC50 was under 50 nM.

Cc1cnc(NC2CC(F)(F)C2)nc1-n1cnc(C(=O)N[C@@H](CN)c2cc(F)cc(Cl)c2)c1 [Example 289, (R)-N-(2-amino-1-(3-chloro-5-fluoro-phenyl)ethyl)-1-(2-((3,3-difluoro-cyclobutyl)amino)-5-methylpyrimidin-4-yl)-1H-imidazole-4-carboxamide] was tested. Which IC50 ([1]; HTRF) did it give?
Its IC50 is 50 to 100 nM.

What about the IC50 ([2]; HTRF) of the same molecule?
The IC50 was 100 to 500 nM.

What does the source list for Cc1cnc(Nc2ccc3c(c2)OCO3)nc1-n1cc(NC(=O)NC(CO)c2cccc(Cl)c2)cn1 (centres unmarked) [Compound 37, 1-(1-(2-(benzo[d][1,3]dioxol-5-ylamino)-5-methylpyrimidin-4-yl)-1H-pyrazol-4-yl)-3-(1-(3-chlorophenyl)-2-hydroxyethyl)urea]?
IC50 ([1]; HTRF): ≤ 50 nM; IC50 ([2]; HTRF): 100 to 500 nM

Which results are given for Cc1cnc(NC2CCOCC2)nc1-n1cnc(C(=O)NC(C(N)=O)c2cccc(Cl)c2)c1 (centres unmarked) [Example 312, N-(2-amino-1-(3-chlorophenyl)-2-oxoethyl)-1-(5-methyl-2-((tetrahydro-2H-pyran-4-yl)amino)-pyrimidin-4-yl)-1H-imidazole-4-carboxamide]?
IC50 ([1]; HTRF biochemical assay): ≤ 50 nM; IC50 ([2]; HTRF biochemical assay): < 50 nM

For Cc1cnc(Nc2ccc(C3CCNCC3)cc2)nc1-n1ccc(C(=O)NC(CO)c2cccc(Cl)c2)c1 (centres unmarked) [Compound 215, N-(1-(3-chlorophenyl)-2-hydroxyethyl)-1-(5-methyl-2-((4-(piperidin-4-yl)phenyl)amino)pyrimidin-4-yl)-1H-pyrrole-3-carboxamide], which IC50 ([1]; HTRF) is on record?
The IC50 was at most 50 nM.

And the IC50 ([2]; HTRF)?
The IC50 was 50 to 100 nM.

With Cc1cnc(N[C@@H]2CCOC2)nc1-n1cnc(C(=O)NCc2cccc(Cl)c2CO)c1 [Example 344, (R)-N-(3-chloro-2-(hydroxymethyl)-benzyl)-1-(5-methyl-2-((tetrahydrofuran-3-yl)amino)-pyrimidin-4-yl)-1H-imidazole-4-carboxamide] as the molecule, how does the IC50 ([1]; HTRF biochemical assay) read?
Its IC50 is at most 50 nM.

What about the IC50 ([2]; HTRF biochemical assay) of the same molecule?
The IC50 was under 50 nM.

What does the source list for Cc1cnc(Nc2cccnc2)cc1-n1ccc(C(=O)NC(CO)c2ccccc2)c1 (centres unmarked) [Compound 81, N-(2-hydroxy-1-phenylethyl)-1-(5-methyl-2-(pyridin-3-ylamino)pyridin-4-yl)-1H-pyrrole-3-carboxamide]?
IC50 ([1]; HTRF): ≤ 50 nM; IC50 ([2]; HTRF): < 50 nM

With Cc1cnc(NC2CCOCC2)nc1-n1cnc(C(=O)NCc2cccc(Cl)n2)c1 [Example 307, N-((6-chloro-pyridin-2-yl)methyl)-1-(5-methyl-2-((tetrahydro-2H-pyran-4-yl)amino)-pyrimidin-4-yl)-1H-imidazole-4-carboxamide] as the molecule, how does the IC50 ([1]; HTRF) read?
The IC50 was at most 50 nM.

What about the IC50 ([2]; HTRF) of the same molecule?
Its IC50 is under 50 nM.

With NCC(NC(=O)c1ccn(-c2ccnc(Nc3ccc(F)cc3)c2)c1)c1ccccc1 (centres unmarked) [Compound 206, N-(2-amino-1-phenylethyl)-1-(2-((4-fluorophenyl)-amino)pyridin-4-yl)-1H-pyrrole-3-carboxamide] as the molecule, how does the IC50 ([1]; HTRF) read?
The IC50 was at most 50 nM.

What about the IC50 ([2]; HTRF) of the same molecule?
Its IC50 is under 50 nM.

What does the source list for O=C(Nc1cnn(-c2ccnc(Nc3ccc(F)cc3Cl)n2)c1)N[C@H](CO)c1cccc(Cl)c1 [Compound 20, (S)-1-(1-(2-((2-chloro-4-fluorophenyl)amino)pyrimidin-4-yl)-1H-pyrazol-4-yl)-3-(1-(3-chlorophenyl)-2-hydroxyethyl)urea]?
IC50 ([1]; HTRF): ≤ 50 nM; IC50 ([2]; HTRF): < 50 nM

What does the source list for Cc1cnc(Nc2ccc3c(c2)OC(F)(F)O3)nc1-n1ccc(C(=O)NC(CO)c2ccccc2)c1 (centres unmarked) [Compound 63, 1-(2-((2,2-difluoro-benzo[d][1,3]dioxol-5-yl)amino)-5-methylpyrimidin-4-yl)-N-(2-hydroxy-1-phenylethyl)-1H-pyrrole-3-carboxamide]?
IC50 ([1]; HTRF): ≤ 50 nM; IC50 ([2]; HTRF): < 50 nM

What does the source list for Cc1cnc(NC2CCCOC2)nc1-n1ccc(C(=O)NC(CO)c2ccccc2)c1 (centres unmarked) [Compound 141, N-(2-hydroxy-1-phenylethyl)-1-(5-methyl-2-((tetrahydro-2H-pyran-3-yl)amino)-pyrimidin-4-yl)-1H-pyrrole-3-carboxamide]?
IC50 ([1]; HTRF): ≤ 50 nM; IC50 ([2]; HTRF): < 50 nM

Which results are given for Cc1cnc(NC2CCOCC2)nc1-n1cnc(C(=O)N[C@H](CNCc2ccc[nH]2)c2cccc(Cl)c2)c1 [Example 306, (S)-N-(2-(((1H-pyrrol-2-yl)-methyl)amino)-1-(3-chlorophenyl)-ethyl)-1-(5-methyl-2-((tetrahydro-2H-pyran-4-yl)amino)-pyrimidin-4-yl)-1H-imidazole-4-carboxamide]?
IC50 ([1]; HTRF): ≤ 50 nM; IC50 ([2]; HTRF): < 50 nM

How did the IC50 ([1]; HTRF) turn out when CC[C@@H](CO)Nc1ncc(C)c(-n2ccc(C(=O)N[C@H](CO)c3cccc(Cl)c3)c2)n1 [Compound 219, N-((S)-1-(3-chlorophenyl)-2-hydroxyethyl)-1-(2-(((S)-1-hydroxy-butan-2-yl)amino)-5-methylpyrimidin-4-yl)-1H-pyrrole-3-carboxamide] was run?
The IC50 was at most 50 nM.

And the IC50 ([2]; HTRF)?
Its IC50 is under 50 nM.

Which results are given for O=C(NC(CO)c1ccccc1)c1ccn(-c2ccnc(Nc3ccc(F)cc3)c2)c1 (centres unmarked) [Compound 84, 1-(2-((4-fluoro-phenyl)amino)pyridin-4-yl)-N-(2-hydroxy-1-phenyl-ethyl)-1H-pyrrole-3-carboxamide]?
IC50 ([1]; HTRF): ≤ 50 nM; IC50 ([2]; HTRF): < 50 nM

Which IC50 ([1]; HTRF) does the source give for COc1c(F)cccc1Nc1ncc(C)c(-n2ccc(C(=O)NC(CO)c3cccc(Cl)c3)c2)n1 (centres unmarked) [Compound 143] here?
Its IC50 is at most 50 nM.

What about the IC50 ([2]; HTRF) of the same molecule?
The IC50 was under 50 nM.

What does the source list for Cc1cnc(Nc2ccc(F)cc2Cl)nc1-n1cnc(C(=O)NC(CO)c2cccc(Cl)c2)c1 (centres unmarked) [Compound 166, 1-(2-((2-chloro-4-fluorophenyl)amino)-5-methyl-pyrimidin-4-yl)-N-(1-(3-chlorophenyl)-2-hydroxyethyl)-1H-imidazole-4-carboxamide]?
IC50 ([1]; HTRF): ≤ 50 nM; IC50 ([2]; HTRF): < 50 nM

Which results are given for Cc1cnc(Nc2ccc3c(c2)OC(F)(F)O3)cc1-n1ccc(C(=O)NC(CO)c2cccc(Cl)c2)c1 (centres unmarked) [Compound 92, N-(1-(3-chlorophenyl)-2-hydroxyethyl)-1-(2-((2,2-difluoro-benzo[d][1,3]dioxol-5-yl)amino)-5-methylpyridin-4-yl)-1H-pyrrole-3-carboxamide]?
IC50 ([1]; HTRF): ≤ 50 nM; IC50 ([2]; HTRF): < 50 nM

Cc1cnc(NC2CCOC(C)C2)nc1-n1cnc(C(=O)N[C@H](CO)c2cccc(Cl)c2)c1 (stereo partly drawn) [Compound 251, N-((S)-1-(3-chlorophenyl)-2-hydroxyethyl)-1-(5-methyl-2-((2-methyltetrahydro-2H-pyran-4-yl)amino)pyrimidin-4-yl)-1H-imidazole-4-carboxamide] was tested. Which IC50 ([1]; HTRF) did it give?
Its IC50 is at most 50 nM.

What about the IC50 ([2]; HTRF) of the same molecule?
Its IC50 is under 50 nM.

How did the IC50 ([1]; HTRF) turn out when Cc1cnc(NC2CCOCC2)nc1-n1cnc(C(=O)NCc2ccccc2CCO)c1 [Compound 243, N-(2-(2-hydroxy-ethyl)benzyl)-1-(5-methyl-2-((tetrahydro-2H-pyran-4-yl)amino)pyrimidin-4-yl)-1H-imidazole-4-carboxamide] was run?
The IC50 was at most 50 nM.

What about the IC50 ([2]; HTRF) of the same molecule?
Its IC50 is under 50 nM.

How did the IC50 ([1]; HTRF biochemical assay) turn out when Cc1cnc(N[C@H]2CCOC2)nc1-n1cnc(C(=O)NCc2cccc(Cl)c2C)c1 [Example 331, (S)-N-(3-chloro-2-methylbenzyl)-1-(5-methyl-2-((tetrahydrofuran-3-yl)amino)pyrimidin-4-yl)-1H-imidazole-4-carboxamide] was run?
The IC50 was at most 50 nM.

What about the IC50 ([2]; HTRF biochemical assay) of the same molecule?
Its IC50 is under 50 nM.

Which results are given for O=C(NC(CO)c1cccc(Cl)c1)c1cn(-c2ccnc(Nc3ccc4c(c3)CCO4)c2)cn1 (centres unmarked) [Compound 163, N-(1-(3-chlorophenyl)-2-hydroxyethyl)-1-(2-((2,3-dihydrobenzofuran-5-yl)amino)pyridin-4-yl)-1H-imidazole-4-carboxamide]?
IC50 ([1]; HTRF): ≤ 50 nM; IC50 ([2]; HTRF): < 50 nM

What does the source list for Cc1cnc(Nc2ccc(F)cc2)cc1-n1cnc(C(=O)NC(CO)c2ccccc2)c1 (centres unmarked) [Compound 222, 1-(2-((4-fluorophenyl)amino)-5-methylpyridin-4-yl)-N-(2-hydroxy-1-phenylethyl)-1H-imidazole-4-carboxamide]?
IC50 ([1]; HTRF): 50 to 100 nM; IC50 ([2]; HTRF): 100 to 500 nM

For Cc1cnc(NC2CCOCC2)nc1-n1cnc(C(=O)NC(CN)c2ccc(Cl)s2)c1 (single isomer, unassigned; enantiomer #1) [Example 290, N-(2-amino-1-(5-chlorothiophen-2-yl)ethyl)-1-(5-methyl-2-((tetrahydro-2H-pyran-4-yl)amino)-pyrimidin-4-yl)-1H-imidazole-4-carboxamide (enantiomer #1)], which IC50 ([1]; HTRF) is on record?
The IC50 was at most 50 nM.

What about the IC50 ([2]; HTRF) of the same molecule?
The IC50 was under 50 nM.

For Cc1cnc(Nc2ccc(F)cc2)nc1-n1cnc(C(=O)NC(CO)c2ccccc2)c1 (centres unmarked) [Compound 118, 1-(2-((4-fluoro-phenyl)amino)-5-methylpyrimidin-4-yl)-N-(2-hydroxy-1-phenylethyl)-1H-imidazole-4-carboxamide], which IC50 ([1]; HTRF) is on record?
Its IC50 is at most 50 nM.

What about the IC50 ([2]; HTRF) of the same molecule?
Its IC50 is 50 to 100 nM.

Which IC50 ([1]; HTRF) does the source give for CC(=O)NCC(NC(=O)c1ccn(-c2nc(Nc3ccc4c(c3)OC(F)(F)O4)ncc2C)c1)c1cccc(Cl)c1 (centres unmarked) [Compound 158, N-(2-acetamido-1-(3-chlorophenyl)-ethyl)-1-(2-((2,2-difluorobenzo[d] [1,3]dioxol-5-yl)-amino)-5-methyl-pyrimidin-4-yl)-1H-pyrrole-3-carboxamide] here?
Its IC50 is 50 to 100 nM.

What about the IC50 ([2]; HTRF) of the same molecule?
Its IC50 is 100 to 500 nM.

Which results are given for Cc1cnc(Nc2ccc3[nH]ncc3c2)nc1-n1ccc(C(=O)NC(CO)c2ccccc2)c1 (centres unmarked) [Compound 140, 1-(2-((1H-indazol-5-yl)amino)-5-methylpyrimidin-4-yl)-N-(2-hydroxy-1-phenylethyl)-1H-pyrrole-3-carboxamide]?
IC50 ([1]; HTRF): ≤ 50 nM; IC50 ([2]; HTRF): < 50 nM
